Data reported in ChEMBL document CHEMBL4184334, “From Cancer to Pain Target by Automated Selectivity Inversion of a Clinical Candidate” (J Med Chem, 2018).
Activity calls are given as the source filed them. The rule behind the calls is not given here.

Assays:
[1] = target: BDNF/NT-3 growth factors receptor (Homo sapiens) (UniProt Q16620); assay: Inhibition of DNA-tagged human partial length TrkB expressed in mammalian expression system at 100 nM by qPCR method
[2] = target: NT-3 growth factor receptor (Homo sapiens) (UniProt Q16288); assay: Inhibition of DNA-tagged human partial length TrkC expressed in mammalian expression system at 100 nM by qPCR method
NT-3 growth factor receptor (Homo sapiens), sequence (Q16288 32-839 limits assumed): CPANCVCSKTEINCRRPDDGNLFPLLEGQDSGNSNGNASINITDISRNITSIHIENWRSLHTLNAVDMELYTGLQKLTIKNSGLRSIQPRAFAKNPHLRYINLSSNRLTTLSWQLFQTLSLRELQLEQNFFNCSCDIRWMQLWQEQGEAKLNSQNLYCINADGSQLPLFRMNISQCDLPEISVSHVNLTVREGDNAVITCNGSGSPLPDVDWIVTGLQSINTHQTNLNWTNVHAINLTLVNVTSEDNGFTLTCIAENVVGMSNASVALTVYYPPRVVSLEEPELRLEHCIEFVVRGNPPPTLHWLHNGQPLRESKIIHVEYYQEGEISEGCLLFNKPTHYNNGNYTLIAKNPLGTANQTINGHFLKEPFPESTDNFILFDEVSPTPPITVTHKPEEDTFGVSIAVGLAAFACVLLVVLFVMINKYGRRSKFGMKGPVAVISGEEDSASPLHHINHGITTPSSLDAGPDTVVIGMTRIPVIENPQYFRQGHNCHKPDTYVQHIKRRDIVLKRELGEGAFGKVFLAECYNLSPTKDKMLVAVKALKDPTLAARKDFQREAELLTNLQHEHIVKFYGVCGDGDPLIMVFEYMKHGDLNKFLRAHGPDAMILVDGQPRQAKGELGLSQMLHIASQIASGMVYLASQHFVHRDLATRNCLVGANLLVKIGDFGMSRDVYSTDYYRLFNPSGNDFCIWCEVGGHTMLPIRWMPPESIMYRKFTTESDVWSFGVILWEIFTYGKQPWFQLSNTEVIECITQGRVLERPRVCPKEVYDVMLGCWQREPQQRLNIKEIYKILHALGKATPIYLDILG

[3] = target: Platelet-derived growth factor receptor beta (Homo sapiens) (UniProt P09619); assay: Inhibition of DNA-tagged human partial length PDGFRB expressed in mammalian expression system at 100 nM by qPCR method
Platelet-derived growth factor receptor beta (Homo sapiens), sequence (P09619 whole entry): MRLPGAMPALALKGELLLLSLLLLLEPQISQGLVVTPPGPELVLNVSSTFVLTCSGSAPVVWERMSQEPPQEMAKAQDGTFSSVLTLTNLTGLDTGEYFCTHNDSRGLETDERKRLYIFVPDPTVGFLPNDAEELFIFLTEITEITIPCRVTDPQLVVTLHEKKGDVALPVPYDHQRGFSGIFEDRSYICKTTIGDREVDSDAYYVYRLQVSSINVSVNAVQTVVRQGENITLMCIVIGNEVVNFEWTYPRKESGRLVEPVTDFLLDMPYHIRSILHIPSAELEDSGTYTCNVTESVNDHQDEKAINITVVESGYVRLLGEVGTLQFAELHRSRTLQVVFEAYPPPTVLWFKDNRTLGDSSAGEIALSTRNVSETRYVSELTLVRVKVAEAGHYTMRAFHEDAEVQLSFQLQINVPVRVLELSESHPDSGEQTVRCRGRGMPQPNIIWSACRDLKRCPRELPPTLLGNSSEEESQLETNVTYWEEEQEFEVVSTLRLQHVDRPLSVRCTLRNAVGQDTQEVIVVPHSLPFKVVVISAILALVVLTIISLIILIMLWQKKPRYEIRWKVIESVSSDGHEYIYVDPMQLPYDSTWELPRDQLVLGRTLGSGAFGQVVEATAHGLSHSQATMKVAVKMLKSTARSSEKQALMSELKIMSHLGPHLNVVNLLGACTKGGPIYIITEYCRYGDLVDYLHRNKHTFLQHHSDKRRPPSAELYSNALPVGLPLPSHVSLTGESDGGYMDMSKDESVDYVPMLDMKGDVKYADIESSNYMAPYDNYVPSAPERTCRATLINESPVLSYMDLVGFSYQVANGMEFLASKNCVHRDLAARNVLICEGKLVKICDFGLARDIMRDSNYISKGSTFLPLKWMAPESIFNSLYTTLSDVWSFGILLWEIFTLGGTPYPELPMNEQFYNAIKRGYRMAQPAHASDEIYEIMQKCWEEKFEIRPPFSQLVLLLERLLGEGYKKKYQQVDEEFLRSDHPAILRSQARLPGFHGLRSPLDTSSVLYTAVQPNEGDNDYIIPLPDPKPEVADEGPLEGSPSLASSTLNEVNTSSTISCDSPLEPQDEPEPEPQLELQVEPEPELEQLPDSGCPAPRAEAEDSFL

Aurora kinase A = target: T1, Aurora kinase A (Homo sapiens, UniProt O14965); assay: Inhibition of DNA-tagged human partial length AURKA expressed in mammalian expression system at 100 nM by qPCR method; settings: 0.1 µM
T1 sequence (O14965 whole entry): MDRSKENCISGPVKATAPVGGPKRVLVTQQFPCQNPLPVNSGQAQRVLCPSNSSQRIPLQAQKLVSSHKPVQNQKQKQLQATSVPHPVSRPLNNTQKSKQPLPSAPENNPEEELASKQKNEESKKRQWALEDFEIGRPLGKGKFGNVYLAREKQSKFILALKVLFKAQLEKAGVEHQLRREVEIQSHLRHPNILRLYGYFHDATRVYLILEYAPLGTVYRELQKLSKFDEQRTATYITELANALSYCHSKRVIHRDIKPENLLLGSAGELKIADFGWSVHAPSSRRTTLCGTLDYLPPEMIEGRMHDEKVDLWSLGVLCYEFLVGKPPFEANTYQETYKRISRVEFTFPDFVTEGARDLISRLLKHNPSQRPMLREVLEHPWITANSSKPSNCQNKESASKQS

[4] = target: Mast/stem cell growth factor receptor Kit (Homo sapiens) (UniProt P10721); assay: Inhibition of DNA-tagged human partial length KIT expressed in bacterial expression system at 100 nM by qPCR method
Mast/stem cell growth factor receptor Kit (Homo sapiens), sequence (P10721 whole entry): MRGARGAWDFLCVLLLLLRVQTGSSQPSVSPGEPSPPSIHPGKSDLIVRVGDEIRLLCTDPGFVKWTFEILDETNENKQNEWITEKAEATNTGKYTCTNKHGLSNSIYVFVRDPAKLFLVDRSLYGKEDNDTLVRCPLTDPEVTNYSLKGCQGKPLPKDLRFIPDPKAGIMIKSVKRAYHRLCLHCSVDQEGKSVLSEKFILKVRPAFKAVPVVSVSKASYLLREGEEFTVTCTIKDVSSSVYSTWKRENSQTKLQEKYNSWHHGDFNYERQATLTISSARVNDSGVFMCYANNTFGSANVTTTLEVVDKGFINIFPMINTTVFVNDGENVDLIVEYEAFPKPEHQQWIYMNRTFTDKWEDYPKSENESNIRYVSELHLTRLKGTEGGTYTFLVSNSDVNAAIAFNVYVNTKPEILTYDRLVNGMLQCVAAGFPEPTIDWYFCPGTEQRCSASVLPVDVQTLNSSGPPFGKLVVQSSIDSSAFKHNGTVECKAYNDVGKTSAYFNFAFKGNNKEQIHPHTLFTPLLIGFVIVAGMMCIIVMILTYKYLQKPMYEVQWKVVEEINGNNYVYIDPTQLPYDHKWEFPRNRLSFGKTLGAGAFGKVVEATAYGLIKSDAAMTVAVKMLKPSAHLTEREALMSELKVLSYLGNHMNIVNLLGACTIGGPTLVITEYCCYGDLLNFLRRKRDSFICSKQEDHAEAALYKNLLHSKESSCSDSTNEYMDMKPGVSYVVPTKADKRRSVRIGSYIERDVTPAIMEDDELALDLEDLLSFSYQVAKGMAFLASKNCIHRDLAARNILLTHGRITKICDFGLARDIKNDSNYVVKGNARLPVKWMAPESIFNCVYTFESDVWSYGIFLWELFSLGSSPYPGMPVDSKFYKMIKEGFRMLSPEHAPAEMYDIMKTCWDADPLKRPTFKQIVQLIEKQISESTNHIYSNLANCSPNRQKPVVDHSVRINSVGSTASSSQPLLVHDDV

[5] = target: Proto-oncogene tyrosine-protein kinase receptor Ret (Homo sapiens) (UniProt P07949); assay: Inhibition of DNA-tagged human partial length RET expressed in bacterial expression system at 100 nM by qPCR method
Proto-oncogene tyrosine-protein kinase receptor Ret (Homo sapiens), sequence (P07949 whole entry): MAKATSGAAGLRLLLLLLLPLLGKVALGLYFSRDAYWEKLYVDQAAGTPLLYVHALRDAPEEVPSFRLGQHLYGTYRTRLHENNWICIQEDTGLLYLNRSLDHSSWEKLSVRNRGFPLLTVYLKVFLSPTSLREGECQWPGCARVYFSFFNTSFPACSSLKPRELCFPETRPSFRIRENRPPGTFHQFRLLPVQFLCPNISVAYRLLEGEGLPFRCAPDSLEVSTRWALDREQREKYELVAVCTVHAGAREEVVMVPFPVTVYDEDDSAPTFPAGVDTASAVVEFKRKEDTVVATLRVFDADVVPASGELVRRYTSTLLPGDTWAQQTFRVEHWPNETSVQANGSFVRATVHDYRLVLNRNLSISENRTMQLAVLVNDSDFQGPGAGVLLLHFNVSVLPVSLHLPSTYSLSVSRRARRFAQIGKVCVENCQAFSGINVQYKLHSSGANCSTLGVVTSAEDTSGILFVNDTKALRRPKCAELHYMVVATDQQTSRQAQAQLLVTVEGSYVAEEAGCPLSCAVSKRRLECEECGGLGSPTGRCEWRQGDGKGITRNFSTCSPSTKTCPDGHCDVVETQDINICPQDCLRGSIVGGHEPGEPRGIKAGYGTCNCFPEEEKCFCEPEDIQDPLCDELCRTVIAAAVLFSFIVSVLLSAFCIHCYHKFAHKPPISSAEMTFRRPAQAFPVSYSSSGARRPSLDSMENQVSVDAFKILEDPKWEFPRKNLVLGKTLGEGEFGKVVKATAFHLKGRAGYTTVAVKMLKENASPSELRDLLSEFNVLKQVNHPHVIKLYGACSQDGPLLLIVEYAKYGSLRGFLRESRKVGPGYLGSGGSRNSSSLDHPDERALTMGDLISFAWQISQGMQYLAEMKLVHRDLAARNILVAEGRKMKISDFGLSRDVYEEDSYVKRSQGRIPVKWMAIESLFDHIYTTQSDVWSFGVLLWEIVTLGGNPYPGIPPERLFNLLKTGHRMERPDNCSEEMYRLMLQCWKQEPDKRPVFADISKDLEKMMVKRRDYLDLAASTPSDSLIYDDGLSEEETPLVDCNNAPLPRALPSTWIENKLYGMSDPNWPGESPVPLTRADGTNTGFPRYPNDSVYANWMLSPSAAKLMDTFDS

[6] = target: High affinity nerve growth factor receptor (Homo sapiens) (UniProt P04629); assay: Inhibition of DNA-tagged human partial length TrkA expressed in mammalian expression system assessed as remaining activity at 100 nM by qPCR method
[7] = target: Tyrosine-protein kinase JAK2 (Homo sapiens, UniProt O60674); assay: Inhibition of DNA-tagged human partial length JAK2 JH1 domain-catalytic expressed in mammalian expression system at 100 nM by qPCR method; settings: 0.1 µM
[8] = target: T2, Tyrosine-protein kinase JAK3 (Homo sapiens) (UniProt P52333); assay: Inhibition of DNA-tagged human partial length JAK3 JH1 domain-catalytic expressed in mammalian expression system at 100 nM by qPCR method
T2 sequence (whole entry): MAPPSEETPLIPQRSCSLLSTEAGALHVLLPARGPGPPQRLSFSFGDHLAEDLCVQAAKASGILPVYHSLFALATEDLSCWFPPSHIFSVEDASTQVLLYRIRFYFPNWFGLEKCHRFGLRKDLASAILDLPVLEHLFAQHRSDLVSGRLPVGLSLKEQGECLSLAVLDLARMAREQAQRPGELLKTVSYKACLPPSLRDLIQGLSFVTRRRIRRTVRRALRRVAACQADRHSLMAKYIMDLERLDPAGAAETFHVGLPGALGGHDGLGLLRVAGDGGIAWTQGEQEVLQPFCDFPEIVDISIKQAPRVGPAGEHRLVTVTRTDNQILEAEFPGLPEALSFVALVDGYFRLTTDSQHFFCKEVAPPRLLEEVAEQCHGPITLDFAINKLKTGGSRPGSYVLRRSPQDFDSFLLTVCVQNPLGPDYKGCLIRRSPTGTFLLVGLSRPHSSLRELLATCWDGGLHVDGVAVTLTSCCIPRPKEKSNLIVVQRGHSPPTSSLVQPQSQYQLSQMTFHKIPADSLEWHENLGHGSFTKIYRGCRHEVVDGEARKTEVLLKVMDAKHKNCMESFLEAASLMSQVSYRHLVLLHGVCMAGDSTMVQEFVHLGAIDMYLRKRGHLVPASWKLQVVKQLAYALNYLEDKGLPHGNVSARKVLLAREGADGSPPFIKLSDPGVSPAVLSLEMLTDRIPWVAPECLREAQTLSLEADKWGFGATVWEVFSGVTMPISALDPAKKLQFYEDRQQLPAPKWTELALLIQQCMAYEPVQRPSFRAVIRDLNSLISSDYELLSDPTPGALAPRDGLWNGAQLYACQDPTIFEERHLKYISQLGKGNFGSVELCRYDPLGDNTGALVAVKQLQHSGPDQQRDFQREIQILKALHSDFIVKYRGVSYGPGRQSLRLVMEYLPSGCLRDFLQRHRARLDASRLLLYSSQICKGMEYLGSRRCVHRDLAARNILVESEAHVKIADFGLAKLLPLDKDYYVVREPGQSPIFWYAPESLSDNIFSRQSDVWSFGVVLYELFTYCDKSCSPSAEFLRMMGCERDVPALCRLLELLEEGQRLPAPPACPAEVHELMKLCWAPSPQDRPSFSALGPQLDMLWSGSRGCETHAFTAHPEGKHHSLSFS

[9] = target: Tyrosine-protein kinase ABL1 (Homo sapiens, UniProt P00519, T315I); assay: Inhibition of DNA-tagged human phosphorylated partial length ABL1 T315I mutant expressed in mammalian expression system at 100 nM by qPCR method; settings: 0.1 µM
[10] = target: Tyrosine-protein kinase ABL1 (Homo sapiens, UniProt P00519); assay: Inhibition of DNA-tagged human nonphosphorylated partial length ABL1 expressed in mammalian expression system at 100 nM by qPCR method; settings: 0.1 µM
Homo sapiens = organism: Homo sapiens; assay: Selectivity ratio of Kd for DNA-tagged human partial length AURKA to Kd for DNA-tagged human partial length TrkA

BDNF/NT-3 growth factors receptor (Homo sapiens), sequence (Q16620 32-822 limits assumed): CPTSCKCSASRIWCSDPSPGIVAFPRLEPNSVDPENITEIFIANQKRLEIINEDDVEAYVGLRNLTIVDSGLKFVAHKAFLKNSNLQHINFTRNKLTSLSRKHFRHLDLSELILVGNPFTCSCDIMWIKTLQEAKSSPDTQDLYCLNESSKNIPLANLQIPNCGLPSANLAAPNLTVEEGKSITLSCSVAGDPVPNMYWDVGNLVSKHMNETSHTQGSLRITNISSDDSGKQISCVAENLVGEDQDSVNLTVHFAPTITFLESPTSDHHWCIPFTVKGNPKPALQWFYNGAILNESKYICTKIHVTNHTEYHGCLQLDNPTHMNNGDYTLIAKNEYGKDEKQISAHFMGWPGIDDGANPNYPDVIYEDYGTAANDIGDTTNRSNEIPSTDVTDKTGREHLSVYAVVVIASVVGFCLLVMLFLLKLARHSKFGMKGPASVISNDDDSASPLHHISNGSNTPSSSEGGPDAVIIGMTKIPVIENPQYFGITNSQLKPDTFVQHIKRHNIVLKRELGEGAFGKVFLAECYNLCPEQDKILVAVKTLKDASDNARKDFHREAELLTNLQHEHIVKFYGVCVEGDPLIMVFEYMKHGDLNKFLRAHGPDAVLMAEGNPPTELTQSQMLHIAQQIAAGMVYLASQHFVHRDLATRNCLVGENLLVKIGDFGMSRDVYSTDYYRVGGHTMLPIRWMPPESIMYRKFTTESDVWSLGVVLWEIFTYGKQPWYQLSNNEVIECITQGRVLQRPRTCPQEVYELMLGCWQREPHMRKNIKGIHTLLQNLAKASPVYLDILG

| SMILES | inhibition [1] | inhibition [2] | inhibition [3] | inhibition [5] | also measured |
| --- | --- | --- | --- | --- | --- |
| Cc1ccc(CSc2nc(Nc3cc(C)[nH]n3)cc(N3CCN(C)CC3)n2)cc1 | inactive | inactive | inactive |  |  |
| CN1CCN(c2cc(Nc3cc(C(C)(C)C)[nH]n3)nc(Sc3ccccc3)n2)CC1 |  |  |  |  | inhibition (INH) (Aurora kinase A): Not Active |
| CN1CCN(c2cc(Nc3cc(-c4cccc(F)c4)[nH]n3)nc(Sc3ccccc3)n2)CC1 | Active | Active | Active | Active | inhibition [4]: Active; Activity [6]: < 1%; inhibition (INH) [7]: Not Active; inhibition [8]: inactive; inhibition (INH) [9]: Not Active; inhibition (INH) [10]: Not Active; Selectivity ratio (Homo sapiens): 1000 |
| Cc1cc(Nc2cc(N3CCN(C)CC3)nc(Sc3ccc(NC(=O)C4CC4)cc3)n2)n[nH]1 |  |  |  | Active |  |
